Earlier results in paper PMC4364779, “IMD-4690, a Novel Specific Inhibitor for Plasminogen Activator Inhibitor-1, Reduces Allergic Airway Remodeling in a Mouse Model of Chronic Asthma via Regulating Angiogenesis and Remodeling-Related Mediators” (PLoS ONE, 2015).

Test system: murine model of chronic asthma
Set-up: method as in PMID 22323366
Details: cited from earlier work

For O=C(O)C(=O)c1cn(Cc2ccccc2)c2ccc(-c3ccc(OC(F)(F)F)cc3)cc12 [tiplaxtinin], the “Allergic airway inflammation and lung collagen deposition” value is listed as “attenuated”.
